“And” between values parts separate entries of the source, which are not always exact repeats. Equal values may be shown once. Read-outs that look alike come from different tables or passages of the source.
Assays:
[1] = system: Children with Alagille Syndrome
Method: Children aged 1-18 years with a diagnosis of ALGS and evidence of cholestasis were eligible to enroll in the ICONIC clinical study, see Tables 12-14. During a long-term extension, participants with sBA levels above the upper limit of normal and/or an ITCHRO(OBS) score >1.5 were eligible for the 400 μg/kg BID dose (all participants received the 400 μg/kg BID dose). Inclusion criteria for the ICONIC study included having cholestasis, which was defined as at least one of 1) sBA concentration (total sBA) >3× the upper limit of normal, 2) serum conjugated bilirubin concentration >1 mg/dL, 3) fat-soluble vitamin deficiency not otherwise explained, 4) serum gamma-glutamyl transferase concentration >3× the upper limit of normal, and 3) intractable pruritus explainable only by liver disease. Inclusion criteria also included having significant pruritus, which was defined as an average daily score of >2 on the ITCHRO(OBS) scale for 2 consecutive weeks (0=no pruritus; 4=most severe pruritus). Exclusion criteria included having surgically disrupted enterohepatic circulation, a liver transplant, decompensated cirrhosis, or having any liver disease other than ALGS.
sBA responders were defined as those patients achieving ≥50% reduction from baseline in sBA at week 12 or 18. ITCHRO responders were defined as those patients achieving at least a 1-point reduction from Baseline in weekly morning ITCHRO(OBS) score at week 12 or 18.
In the open label extension, the effect of higher doses was explored by increasing dosage to a maximum of 400 μg/kg BID in eligible participants.
Efficacy assessments were based on changes from baseline in sBA concentration, weekly average ITCHRO(OBS) scores (0, none; 4, most severe), CSS score (0, none; 4 most severe), and Clinician Xanthoma Scale score (0, none; 4, disabling). […] During the long-term extension, efficacy assessments were conducted every 12 weeks. Serum total cholesterol and serum 7αC4 concentration were also monitored during the ICONIC clinical study, among other measures.
sBA were measured using a fully validated liquid chromatography-electrospray ionization-mass electrospray (LC-ESI-MS) method using stable-isotope dilution analysis to measure serum concentrations of principal bile acids (cholic, chenodeoxycholic, ursodeoxycholic, deoxycholic acid, lithocholic, and their corresponding glycine and taurine conjugates). Serum samples were analyzed in the Division of Pathology and Laboratory Medicine, Cincinnati Children's Hospital Medical Center according to SOP #PATH.CMS.1033. Calibration standards of individual bile acids were in the range of 50-25,000 ng/mL and Quality Control samples were prepared at concentrations of 100, 500, 1000, 2500, and 20000 ng/mL. The intra- and inter-assay imprecision of the method for individual bile acids measured was within the accepted GLP quality assurance guidelines of <15% coefficient of variance for these QC samples. The lower limit of quantification of the assay was set at 100 ng/mL and the imprecision at this concentration was <20%. The limit of detection of the assay was 5 ng/mL. Total sBA is represented by the sum of the individual bile acid species measured.

[2] = system: Children with Progressive Familial Intrahepatic Cholestasis; test: INDIGO phase 2 open-label efficacy and safety clinical study of maralixibat in PFIC; type: in vivo, human; conditions: all PFIC 1 patients and all patients harboring a truncating ABCB11 mutation
[3] = Withdrawal-Week 22, Maralixibat group
[4] = first 18 weeks of treatment, 400 μg/kg QD
[5] = one line per Subject ID (Table 18)
[6] = one line per Subject ID (Table 19)
[7] = sBA Normalization (<8.5 μmol/L)

maralixibat
weight Z-scores ([1]; 400 μg/kg QD then 400 μg/kg BID): dose-dependent increase in weight Z-scores
Change in ItchRO from Baseline to Week 48 ([1]; ITCHRO(OBS) weekly morning average score, one line per Subject ID (Table 18)): 0.49 and −0.45 and 1.29 and −3.86 and 0.00 and −2.57 and −1.86 (2×) and −1.71 (2×) and −1.00 (2×) and −1.29 and −1.67 and −1.14 and −1.03 and −3.29 (2×) and −3.43 and −2.50 and −2.71 (2×) and −3.50 and −2.29 and −0.17 and −1.43 and −0.83 and −0.12
sBA response, Week 48 (N = 28) n (%) ([1]; Normalization (<8.5 μmol/L)): 1 (3.6%)
ItchRO (Obs) responders, Decrease from baseline ≥1 ([1]; Open-label Week 18): 67.7%
ItchRO (Obs) responders, Decrease from baseline ≥1.25 ([1]; Open-label Week 18): 58.1%
ItchRO (Obs) responders, Decrease from baseline ≥1.5 ([1]; Open-label Week 18): 51.6%
ItchRO (Obs) responders, Decrease from baseline ≥1 ([1]; Open-label Week 48): 72.4%
ItchRO (Obs) responders, Decrease from baseline ≥1.25 ([1]; Open-label Week 48): 58.6%
ItchRO (Obs) responders, Decrease from baseline ≥1.5 ([1]; Open-label Week 48): 51.7%
C4, Mean ([1]; Week 48, n = 15): 20.4 ng/mL
Serum cholesterol, Mean ([1]; Week 48, n = 15): 340.3 mg/dL
C4, Mean ([1]; Week 191, n = 15): 30.4 ng/mL
Serum cholesterol, Mean ([1]; Week 191, n = 15): 277.5 mg/dL
ItchRO (Obs) responders, Decrease from baseline ≥1 [1, 3]: 53.8%
ItchRO (Obs) responders, Decrease from baseline ≥1.25 [1, 3]: 46.2%
ItchRO (Obs) responders, Decrease from baseline ≥1.5 [1, 3]: 23.1%
study days with minimal or no pruritus (ITCHRO(OBS)≤1) ([1]; after 98 weeks, across participants): over 89%
Clinician xanthoma scale scores ([1]; all participants by week 48): improved significantly
CSS score, mean reduction ([1]; at 191 weeks): 2.4 points
ITCHRO(OBS) score, mean change from baseline ([1]; at 191 weeks): −2.5
sBA levels, reduction from baseline ([1]; at 191 weeks): about 57%
ITCHRO(OBS) final score ([1]; at 193 weeks): about 0.33
ITCHRO(OBS) score, mean reduction ([1]; at 193 weeks): over 2 points
CSS final average score ([1]; by week 48, all participants): about 1.5
CSS scores, average decrease ([1]; by week 48, all participants): over 1.5 points
Clinician Xanthoma Score, reduction from baseline ([1]; by week 191): 0.7 points
ITCHRO(OBS) scores, average decrease relative to baseline ([1]; by week 193 (second statement of b611)): over 1.5 points
PedsQL Multidimensional Fatigue Scale scores ([1]; core study and extension): Improvements
tolerability ([1]; core study and extension, over three years): well tolerated
tolerability ([1]; doses up to 800 μg/kg/day, treatment duration up to 4 years): generally well tolerated
ITCHRO(OBS) scores, mean change from baseline [1, 4]: −1.7
sBA concentration, decrease [1, 4]: 31%
Serum Bile Acid, Change from Baseline to Week 48 [1, 5]: −166.3 μmol/L and −281.4 μmol/L and 166.4 μmol/L and −121.1 μmol/L and 4.3 μmol/L (2×) and −251.0 μmol/L and 3.3 μmol/L and −27.3 μmol/L and −155.5 μmol/L and −240.2 μmol/L and 9.0 μmol/L and 143.1 μmol/L and −112.2 μmol/L and 16.4 μmol/L and −10.9 μmol/L and −16.9 μmol/L and 54.5 μmol/L and −620.4 μmol/L and −23.9 μmol/L and −377.3 μmol/L and −205.9 μmol/L and −270.4 μmol/L and 25.5 μmol/L and −203.6 μmol/L and −96.4 μmol/L and −33.9 μmol/L and −56.4 μmol/L
Serum Bile Acid, Week 48 [1, 5]: 131.8 µmol/L and 98.5 µmol/L and 578.1 µmol/L and 20.8 µmol/L and 333.0 µmol/L and 119.6 µmol/L and 117.7 µmol/L and 492.6 µmol/L and 427.9 µmol/L and 199.8 µmol/L and 29.2 µmol/L and 891.6 µmol/L and 163.4 µmol/L and 60.2 µmol/L and 12.0 µmol/L and 23.6 µmol/L and 126.1 µmol/L and 37.0 µmol/L and 7.0 µmol/L and 101.9 µmol/L and 293.3 µmol/L and 65.0 µmol/L and 110.9 µmol/L and 35.8 µmol/L and 208.0 µmol/L and 55.8 µmol/L and 15.6 µmol/L and 22.9 µmol/L
ItchRO(Obs) Weekly Morning Average Score, Change from Baseline to Week 48 [1, 6]: −0.12 and 0.49 and −0.45 and 1.29 and −3.86 and 0.00 and −2.57 and −1.86 (2×) and −1.71 (2×) and −1.00 (2×) and −1.29 and −1.67 and −1.14 and −1.03 and −3.29 (2×) and −3.43 and −2.50 and −2.71 (2×) and −3.50 and −2.29 and −0.17 and −1.43 and −0.83
ItchRO(Obs) Weekly Morning Average Score, Week 48 [1, 6]: 2.71 and 3.20 and 1.83 and 3.71 and 0.14 and 1.86 and 0.71 and 1.14 (2×) and 0.29 (2×) and 2.00 (2×) and 1.71 (2×) and 1.00 and 1.40 and 0.00 (7×) and 1.43 and 1.57 and 3.50 and 2.17
Height Z-score, increase from baseline ([1]; participants in the ICONIC clinical study): 0.5
growth after dose increase ([1]; patients (N=15) given 400 μg/kg BID after 400 μg/kg QD for in excess of about 40 weeks): further increase in growth from baseline
ITCHRO(OBS), LS mean difference maralixibat vs placebo ([1]; randomized withdrawal): −1.5
sBA levels, least squares mean difference maralixibat vs placebo ([1]; randomized withdrawal (week 18-22)): −114.0
ItchRO(Obs) Weekly Morning Average Score, Average Change from Baseline [1, 7]: −3.50
ItchRO(Obs) Weekly Morning Average Score, Week 48 Average Score [1, 7]: 0.00
ItchRO(Obs) Weekly Morning Average Score, Average Change from Baseline ([1]; sBA ≥50% Reduction): −1.86
ItchRO(Obs) Weekly Morning Average Score, Week 48 Average Score ([1]; sBA ≥50% Reduction): 1.07
ItchRO(Obs) Weekly Morning Average Score, Average Change from Baseline ([1]; sBA ≥60% Reduction): −2.12
ItchRO(Obs) Weekly Morning Average Score, Week 48 Average Score ([1]; sBA ≥60% Reduction): 0.82
ItchRO(Obs) Weekly Morning Average Score, Average Change from Baseline ([1]; sBA ≥70% Reduction): −2.31
ItchRO(Obs) Weekly Morning Average Score, Week 48 Average Score ([1]; sBA ≥70% Reduction): 0.62
ItchRO(Obs) Weekly Morning Average Score, Average Change from Baseline ([1]; sBA ≥80% Reduction): −2.79
ItchRO(Obs) Weekly Morning Average Score, Week 48 Average Score ([1]; sBA ≥80% Reduction): 0.11
ItchRO(Obs) Weekly Morning Average Score, Average Change from Baseline ([1]; sBA ≥90% Reduction): −2.71
ItchRO(Obs) Weekly Morning Average Score, Week 48 Average Score ([1]; sBA ≥90% Reduction): 0.00
relation between reduction in sBA concentration and reduction of severity of pruritus (ITCHRO(OBS)) ([1]; week 48): positive correlation
sBA response, Week 48 (N = 28) n (%) ([1]; ≥50% Reduction): 13 (46.4%)
sBA response, Week 48 (N = 28) n (%) ([1]; ≥60% Reduction): 11 (39.3%)
sBA response, Week 48 (N = 28) n (%) ([1]; ≥70% Reduction): 8 (28.6%)
sBA response, Week 48 (N = 28) n (%) ([1]; ≥80% Reduction): 4 (14.3%)
sBA response, Week 48 (N = 28) n (%) ([1]; ≥90% Reduction): 1 (3.6%)
multi-parameter response [2]: not multi-parameter responders

Reference: patent publication US12599602B2, “Methods for treating cholestasis” (Mirum Pharmaceuticals, Inc., priority 2019, dated 2026)
